Consider one molecule from patent publication US7482351B2, “4-pyrimidineamine compounds and their uses as anti-proliferative agents” (Rigel Pharmaceuticals, Inc., priority 2004, dated 2009).

Where only a bound is given, the exact number is not on record here.

What all share (type): cell-based
For test [1], the system named is HELA (cervical adenocarcinoma) cells. The experiment in a line: in vitro inhibition of HELA cells. Here is the method: (§1) Various exemplary 5-fluoro-4-pyrmidineamine compounds (illustrated in TABLE 1, infra) were synthesized as described herein and tested for their ability to inhibit A549 (lung carcinoma), DLD-1 (colorectal adenocarcinoma), H1299 (non small cell lung carcinoma), HCT116 (colorectal carcinoma), HELA (cervical adenocarcinoma) and/or U2OS (bone osterosarcoma) cells in vitro. […] A blank indicates the particular compound was […].

The subject of test [2] is U2OS (bone osterosarcoma) cells. The experiment in a line: in vitro inhibition of U2OS cells. Here is the method:
as §1

The subject of test [3] is HCT116 (colorectal carcinoma) cells. In words: in vitro inhibition of HCT116 cells. Here is the method:
as §1

In the next test the test system is A549. The experiment in a line: 9-point anti-proliferation assay, A549. To be noted: A549, 9-point anti-proliferation assay.
For test [4], the system named is Miapaca2 (pancreatic carcinoma). In words: 9-point anti-proliferation assay, Miapaca2. To be noted: Miapaca2, 9-point anti-proliferation assay.
Test [5] relates to Colo205 (colorectal adenocarcinoma). The experiment in a line: 9-point anti-proliferation assay, Colo205. To be noted: Colo205, 9-point anti-proliferation assay.
In test [6] the test system is H1299 (non small cell lung carcinoma) cells. The experiment in a line: in vitro inhibition of H1299 cells. Here is the method: as §1
For test [7], the system named is DLD-1 (colorectal adenocarcinoma) cells. The experiment in a line: in vitro inhibition of DLD-1 cells. To be noted: DLD-1 (colorectal adenocarcinoma) cells in vitro. Here is the method:
as §1

In test [8] the test system is A549 (lung carcinoma) cells. The experiment in a line: in vitro inhibition of A549 cells. Here is the method:
as §1

Another test concerns HCT116. The experiment in a line: 9-point anti-proliferation assay, HCT116. To be noted: HCT116, 9-point anti-proliferation assay.

Regarding `CN(c1ccc2c(c1)OCCO2)c1nc(-c2ccsc2)ncc1F` [Compound 25, N4-(3,4-Ethylenedioxyphenyl)-5-fluoro-N-4-methyl-2-(3-thienyl)-4-pyrimidineamine], the IC50 (usually the concentration at which inhibition is half-maximal) was not above 1 µM in test [1]; not above 1 µM in test [2]; not above 1 µM in [3]; less than 1 µM with A549; less than 1 µM in test [4]; less than 1 µM in test [5]. The IC50 in [6] is not above 1 µM; in test [7] it was not above 1 µM; in [8], not above 1 µM; with HCT116, less than 1 µM.
